Source: PubChem BioAssay (NCI)
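Briefly, cells in 96-well plates were exposed to five compound concentrations for 48 h, and endpoints were estimated by linear interpolation. GI50 = concentration required for 50% inhibition of growth. Definition used: TGI = concentration required for complete inhibition of growth.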

How the values were obtained:
Test in all cases: growth of human tumour cells (NCI), 48 h
786-0 renal = test system: 786-0 renal
A498 renal = test system: A498 renal
A549 NSCLC = test system: A549 NSCLC
ACHN renal = test system: ACHN renal
BT-549 breast = test system: BT-549 breast
CAKI-1 renal = test system: CAKI-1 renal
CCRF-CEM leukemia = test system: CCRF-CEM leukemia
COLO 205 colon = test system: COLO 205 colon
DU-145 prostate = test system: DU-145 prostate
EKVX NSCLC = test system: EKVX NSCLC
HCC-2998 colon = test system: HCC-2998 colon
HCT-116 colon = test system: HCT-116 colon
HCT-15 colon = test system: HCT-15 colon
HL-60(TB) leukemia = test system: HL-60(TB) leukemia
HOP-62 NSCLC = test system: HOP-62 NSCLC
HOP-92 NSCLC = test system: HOP-92 NSCLC
HS 578T breast = test system: HS 578T breast
HT29 colon = test system: HT29 colon
IGROV1 ovarian = test system: IGROV1 ovarian
K-562 leukemia = test system: K-562 leukemia
KM12 colon = test system: KM12 colon
LOX IMVI melanoma = test system: LOX IMVI melanoma
M14 melanoma = test system: M14 melanoma
MALME-3M melanoma = test system: MALME-3M melanoma
MCF7 breast = test system: MCF7 breast
MDA-MB-231 breast = test system: MDA-MB-231 breast
MDA-MB-435 = test system: MDA-MB-435
MOLT-4 leukemia = test system: MOLT-4 leukemia
NCI-H226 lung = test system: NCI-H226 lung
NCI-H460 lung = test system: NCI-H460 lung
NCI-H522 lung = test system: NCI-H522 lung
NCI/ADR-RES ovarian = test system: NCI/ADR-RES ovarian
OVCAR-3 ovarian = test system: OVCAR-3 ovarian
OVCAR-4 ovarian = test system: OVCAR-4 ovarian
OVCAR-5 ovarian = test system: OVCAR-5 ovarian
OVCAR-8 ovarian = test system: OVCAR-8 ovarian
PC-3 prostate = test system: PC-3 prostate
RPMI-8226 leukemia = test system: RPMI-8226 leukemia
RXF 393 renal = test system: RXF 393 renal
SF-268 CNS = test system: SF-268 CNS
SF-295 CNS = test system: SF-295 CNS
SF-539 CNS = test system: SF-539 CNS
SK-MEL-2 melanoma = test system: SK-MEL-2 melanoma
SK-MEL-28 melanoma = test system: SK-MEL-28 melanoma
SK-MEL-5 melanoma = test system: SK-MEL-5 melanoma
SK-OV-3 ovarian = test system: SK-OV-3 ovarian
SN12C renal = test system: SN12C renal
SNB-19 CNS = test system: SNB-19 CNS
SNB-75 CNS = test system: SNB-75 CNS
SR leukemia = test system: SR leukemia
SW-620 colon = test system: SW-620 colon
T-47D breast = test system: T-47D breast
TK-10 renal = test system: TK-10 renal
U251 CNS = test system: U251 CNS
UACC-257 melanoma = test system: UACC-257 melanoma
UACC-62 melanoma = test system: UACC-62 melanoma
UO-31 renal = test system: UO-31 renal

CN(C)S(=O)(=O)c1oc(-c2ccccc2)nc1C#N
GI50 (786-0 renal): 15.3 µM | TGI (786-0 renal): 29.3 µM | GI50 (A498 renal): > 100 µM | TGI (A498 renal): > 100 µM | GI50 (A549 NSCLC): 73.9 µM | TGI (A549 NSCLC): > 100 µM | GI50 (ACHN renal): 14.9 µM | TGI (ACHN renal): 28.6 µM | GI50 (BT-549 breast): 12 µM | TGI (BT-549 breast): 25.1 µM | GI50 (CAKI-1 renal): 10.4 µM | TGI (CAKI-1 renal): 22.1 µM | GI50 (CCRF-CEM leukemia): 1.9 µM | TGI (CCRF-CEM leukemia): 9.32 µM | GI50 (COLO 205 colon): 11.5 µM | TGI (COLO 205 colon): 24.7 µM | GI50 (DU-145 prostate): 15.6 µM | TGI (DU-145 prostate): 29.4 µM | GI50 (EKVX NSCLC): 21.5 µM | TGI (EKVX NSCLC): 52.4 µM | GI50 (HCC-2998 colon): 16.9 µM | TGI (HCC-2998 colon): 31.6 µM | GI50 (HCT-116 colon): 12.6 µM | TGI (HCT-116 colon): 25.6 µM | GI50 (HCT-15 colon): 11.6 µM | TGI (HCT-15 colon): 29.5 µM | GI50 (HL-60(TB) leukemia): 6.58 µM | TGI (HL-60(TB) leukemia): 29.4 µM | GI50 (HOP-62 NSCLC): > 100 µM | TGI (HOP-62 NSCLC): > 100 µM | GI50 (HOP-92 NSCLC): 5.76 µM | TGI (HOP-92 NSCLC): 20.1 µM | GI50 (HS 578T breast): 23.4 µM | TGI (HS 578T breast): 98.4 µM | GI50 (HT29 colon): 16.6 µM | TGI (HT29 colon): 36.1 µM | GI50 (IGROV1 ovarian): 29 µM | TGI (IGROV1 ovarian): > 100 µM | GI50 (K-562 leukemia): 3.58 µM | TGI (K-562 leukemia): 37.8 µM | GI50 (KM12 colon): 28.5 µM | TGI (KM12 colon): 97.9 µM | GI50 (LOX IMVI melanoma): 1.26 µM | TGI (LOX IMVI melanoma): 11.6 µM | GI50 (M14 melanoma): 12.1 µM | TGI (M14 melanoma): 26.7 µM | GI50 (MALME-3M melanoma): 13.4 µM | TGI (MALME-3M melanoma): 30.1 µM | GI50 (MCF7 breast): 12 µM | TGI (MCF7 breast): 31.6 µM | GI50 (MDA-MB-231 breast): 23.5 µM | TGI (MDA-MB-231 breast): 59.2 µM | GI50 (MDA-MB-435): 18.3 µM | TGI (MDA-MB-435): 44.9 µM | GI50 (MOLT-4 leukemia): 2.82 µM | TGI (MOLT-4 leukemia): 11.5 µM | GI50 (NCI-H226 lung): 10 µM | TGI (NCI-H226 lung): 27.9 µM | GI50 (NCI-H460 lung): 22.3 µM | TGI (NCI-H460 lung): 58.9 µM | GI50 (NCI-H522 lung): 2.81 µM | TGI (NCI-H522 lung): 11 µM | GI50 (NCI/ADR-RES ovarian): 29.9 µM | TGI (NCI/ADR-RES ovarian): > 100 µM | GI50 (OVCAR-3 ovarian): 12.9 µM | TGI (OVCAR-3 ovarian): 27.8 µM | GI50 (OVCAR-4 ovarian): 14.8 µM | TGI (OVCAR-4 ovarian): 32 µM | GI50 (OVCAR-5 ovarian): 18.1 µM | TGI (OVCAR-5 ovarian): 36.7 µM | GI50 (OVCAR-8 ovarian): 19 µM | TGI (OVCAR-8 ovarian): 39.6 µM | GI50 (PC-3 prostate): 15.3 µM | TGI (PC-3 prostate): 32.2 µM | GI50 (RPMI-8226 leukemia): 18.9 µM | TGI (RPMI-8226 leukemia): 43.8 µM | GI50 (RXF 393 renal): 14.4 µM | TGI (RXF 393 renal): 28.4 µM | GI50 (SF-268 CNS): 19.6 µM | TGI (SF-268 CNS): 49.8 µM | GI50 (SF-295 CNS): > 100 µM | TGI (SF-295 CNS): > 100 µM | GI50 (SF-539 CNS): 17.6 µM | TGI (SF-539 CNS): 32.4 µM | GI50 (SK-MEL-2 melanoma): 13.8 µM | TGI (SK-MEL-2 melanoma): 28.6 µM | GI50 (SK-MEL-28 melanoma): 16.3 µM | TGI (SK-MEL-28 melanoma): 31.1 µM | GI50 (SK-MEL-5 melanoma): 18.1 µM | TGI (SK-MEL-5 melanoma): 34.1 µM | GI50 (SK-OV-3 ovarian): > 100 µM | TGI (SK-OV-3 ovarian): > 100 µM | GI50 (SN12C renal): 17.2 µM | TGI (SN12C renal): 49.1 µM | GI50 (SNB-19 CNS): 50 µM | TGI (SNB-19 CNS): > 100 µM | GI50 (SNB-75 CNS): 16.1 µM | TGI (SNB-75 CNS): 30.7 µM | GI50 (SR leukemia): 2.56 µM | TGI (SR leukemia): 13.4 µM | GI50 (SW-620 colon): 9.58 µM | TGI (SW-620 colon): 26.2 µM | GI50 (T-47D breast): 16.1 µM | TGI (T-47D breast): 38.5 µM | GI50 (TK-10 renal): 17.4 µM | TGI (TK-10 renal): 31.6 µM | GI50 (U251 CNS): 17.1 µM | TGI (U251 CNS): 32.6 µM | GI50 (UACC-257 melanoma): 15 µM | TGI (UACC-257 melanoma): 29.8 µM | GI50 (UACC-62 melanoma): 18.4 µM | TGI (UACC-62 melanoma): 42.3 µM | GI50 (UO-31 renal): 14.7 µM | TGI (UO-31 renal): 28.2 µM
